Biological target: human PRMT3 (Homo sapiens, UniProt O60678)
Assay: PRMT3 Biochemical Assay (3H-SAM Flashplate, peptide substrate)
Conditions: single experiment or average of multiple experiments

human PRMT3, sequence (O60678 with tags, fused parts or gaps): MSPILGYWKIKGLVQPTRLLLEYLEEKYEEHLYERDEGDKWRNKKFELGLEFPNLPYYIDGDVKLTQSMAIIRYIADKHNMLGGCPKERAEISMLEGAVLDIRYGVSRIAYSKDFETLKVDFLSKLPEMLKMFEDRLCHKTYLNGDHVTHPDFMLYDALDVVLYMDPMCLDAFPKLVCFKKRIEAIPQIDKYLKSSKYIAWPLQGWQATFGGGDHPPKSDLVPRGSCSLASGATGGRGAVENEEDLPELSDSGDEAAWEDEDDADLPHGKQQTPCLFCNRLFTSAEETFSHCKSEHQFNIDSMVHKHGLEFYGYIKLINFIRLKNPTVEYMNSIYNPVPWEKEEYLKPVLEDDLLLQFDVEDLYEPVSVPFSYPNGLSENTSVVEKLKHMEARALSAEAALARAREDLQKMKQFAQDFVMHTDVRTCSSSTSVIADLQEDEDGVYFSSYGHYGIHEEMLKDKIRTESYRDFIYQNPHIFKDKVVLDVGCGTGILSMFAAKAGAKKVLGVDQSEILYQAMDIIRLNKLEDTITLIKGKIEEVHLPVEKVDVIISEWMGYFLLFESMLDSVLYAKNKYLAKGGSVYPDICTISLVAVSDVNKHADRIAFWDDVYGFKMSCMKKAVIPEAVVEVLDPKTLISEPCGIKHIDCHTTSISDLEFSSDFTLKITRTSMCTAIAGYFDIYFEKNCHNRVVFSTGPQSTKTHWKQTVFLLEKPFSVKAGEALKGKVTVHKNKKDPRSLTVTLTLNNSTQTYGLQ

Structure (SMILES) | IC50
CN(CCN)Cc1c[nH]nc1-c1ccc(F)cc1 [Compound 1] | 2.65 µM
CN(CCN)Cc1cn(C)nc1-c1ccc(F)cc1 [Compound 3] | 25.5 µM
CNCCN(C)Cc1cnn(C)c1-c1ccc(F)cc1 [Compound 10] | 13.4 µM
CNCCN(C)Cc1cnn(CC2CCOCC2)c1-c1ccc(F)cc1 [Compound 12] | > 50 µM
CNCCN(C)Cc1c[nH]nc1-c1cccc(N)c1 [Compound 32] | 2.76 µM
CNCCN(C)Cc1c[nH]nc1-c1cccc(NC(C)=O)c1 [Compound 42] | 2.55 µM
CNCCN(C)Cc1c[nH]nc1-c1cccc(C(C)=O)c1 [Compound 44] | 3.44 µM
CNCCN(C)Cc1c[nH]nc1-c1ccc(-c2ccccc2)cc1 [Compound 47] | 0.53 µM
CN(CCN)Cc1cn(C2COC2)nc1-c1ccc(F)cc1 [Compound 77] | 6.29 µM
Cc1ccc(-c2n[nH]cc2CN(C)CCN)c(C)c1 [Compound 88] | 8.08 µM
CN(CCN)Cc1c[nH]nc1-c1ccc(F)cc1Cl [Compound 89] | 9.56 µM

Second part, the compound after the results:

IC50 | Structure (SMILES)
3.16 µM | CCN(CCNC)Cc1c[nH]nc1-c1ccc(F)cc1 [Compound 9]
4.58 µM | CC(C)Oc1ccc(-c2n[nH]cc2CN(C)CCN)cc1 [Compound 67]
1.59 µM | CN(CCN)Cc1c[nH]nc1-c1ccc(N2CCNCC2)cc1 [Compound 82]
5.82 µM | CN(CCN)Cc1c[nH]nc1-c1ccc(Cl)cc1Cl [Compound 86]
6.97 µM | Cc1ccc(-c2n[nH]cc2CN(C)CCN)c(Cl)c1 [Compound 90]
3.14 µM | CN(CCN)Cc1c[nH]nc1-c1ccc(C(F)(F)F)cc1 [Compound 92]
3.61 µM | CN(CCN)Cc1c[nH]nc1-c1ccc(OC(F)(F)F)cc1 [Compound 93]
5.37 µM | CN(CCN)Cc1c[nH]nc1-c1ccc(OC(F)F)cc1 [Compound 94]
2.39 µM | CN(CCN)Cc1c[nH]nc1-c1ccc(Cl)cc1 [Compound 95]
3.91 µM | CC(C)Oc1ccc(-c2n[nH]cc2CN(C)CCN)cc1Cl [Compound 168]

From patent US9776972B2, “Pyrazole derivatives as arginine methyltransferase inhibitors and uses thereof” (priority 2013, dated 2017)
